Experimental data: US12257243B2, “5-hydroxy-7-oxabicyclo[2.2.1]heptane-2-carboxamide derivatives for inducing chondrogenesis for treating joint damage” (NOVARTIS AG, priority 2018, dated 2025)

Test system: ALP in normal human articular chondrocytes (NHACs)
Experiment: Alkaline Phosphatase (ALP) activity assay (staining and quantitation) in NHACs, prevention of chondrocyte hypertrophy
Format: cell-based
Conditions: Chondrocyte, 288 h, human IL-1 beta 10 ng/mL, 12 days; for IC50: Fast Blue RR staining, high content imaging, read-out: ALP in NHAC IC50; for Emax: value in parentheses, read-out: ALP in NHAC (% Efficacy)
Procedure: The compounds of the present invention were evaluated in the Alkaline Phosphatase (ALP) activity assay to determine the ability of the compounds to prevent chondrocyte hypertrophy in normal human articular chondrocytes (NHACs).
Normal human articular chondrocytes (NHACs) were purchased from PromoCell (Heidelberg, Germany) and grown in Chondrocyte Growth Medium (CGM; Lonza, Walkersville, Md.).
NHACs were expanded in Chondrocyte Growth Medium (CGM) from Lonza until they reached a 60-80% confluency. To initiate differentiation, 7,500 cells were plated/well with indicated test compound dose in 384-well Cell Carrier Ultra plates (Perkin Elmer) with DMEM (SH30022—HyClone) containing 10% FBS (35-015-CV—Corning), 1% Pen/Strep antibiotics (SV30010—HyClone), and 1% Normocin (50 mg/mL—InvivoGen). Cells with test compounds were incubated at 37° C., 5% CO2 for 5 hours and then added human IL-1 beta (AF-200-1B—Peprotech) to each well at a final concentration of 10 ng/mL and incubated at 37° C., 5% CO2 for 12 days.
To detect the presence of hypertrophic cells, NHACs were fixed with 4% paraformaldehyde and Hoechst 33342 (Invitrogen) dye for 30 minutes, rinsed in PBS, then stained with Fast Blue RR Salt (F0500—Sigma) with Naphthol AS-MX Phosphate Alkaline Solution, 0.25% (855—Sigma-Aldrich).
The staining was imaged by fluorescent microscopy, using the 561 nm wavelength, and/or quantified by high content imaging with the Image press Confocal (Molecular Devices, Sunnyvale, Calif.). Data analyses were performed with a customized multiwavelength cell-scoring application.

Question: What does the source list for `Cn1cc([C@H]2[C@H]3O[C@H](C[C@@H]3O)[C@@H]2C(=O)Nc2ccc(C(F)(F)F)cc2)c(C(F)(F)F)n1` (racemic) [Example 29, rac-(1R,2R,3S,4R,5S)-5-hydroxy-3-(1-methyl-3-trifluoromethyl)-1H-pyrazol-4-yl)-N-(4-(trifluoromethyl)phenyl)-7-oxabicyclo[2.2.1]heptane-2-carboxamide]?
Answer: IC50: 11 µM; Emax: 72%

Question: Which IC50 does the source give for `Cc1cc(NC(=O)[C@@H]2[C@@H](c3ccnc(C(F)(F)F)c3)[C@H]3O[C@@H]2C[C@@H]3O)cc(C(F)(F)F)c1` (racemic) [Example 65, rac-(1R,2R,3S,4R,5S)-5-hydroxy-N-(3-methyl-5-(trifluoromethyl)phenyl)-3-(2-(trifluoromethyl)pyridin-4-yl)-7-oxabicyclo[2.2.1]heptane-2-carboxamide] here?
Answer: 20 µM

Question: What about the Emax of the same compound?
Answer: 57%

Question: Which IC50 does the source give for `COc1cc([C@H]2[C@H]3O[C@H](C[C@@H]3O)[C@@H]2C(=O)Nc2ccc(C(F)(F)F)cc2)ccn1` (racemic) [Example 67, rac-(1R,2R,3S,4R,5S)-5-hydroxy-3-(2-methoxypyridin-4-yl)-N-(4-(trifluoromethyl)phenyl)-7-oxabicyclo[2.2.1]heptane-2-carboxamide] here?
Answer: > 30 µM

Question: And the Emax?
Answer: 27%

Question: Which IC50 does the source give for `CCOc1cc(C(F)(F)F)cc(NC(=O)[C@@H]2[C@@H](c3cccc(C(F)(F)F)c3)[C@H]3O[C@@H]2C[C@@H]3O)n1` (racemic) [Example 9, rac-(1R 2R,3S,4R,5S)—N-(6-ethoxy-4-(trifluoromethyl)pyridin-2-yl-5-hydroxy-3-(3-(trifluoromethyl)phenyl)-7-oxabicyclo[2.2.1]heptane-2-carboxamide] here?
Answer: 12 µM

Question: And the Emax?
Answer: 108%

Question: With `O=C(Nc1cccc(C(F)(F)F)c1)[C@@H]1[C@@H](c2ccnc(F)c2)[C@H]2O[C@@H]1C[C@@H]2O` (racemic) [Example 80, rac-(1R 2R,3S,4R,5S)-3-(2-fluoropyridin-4-yl)-5-hydroxy-N-(3-(trifluoromethyl)phenyl)-7-oxabicyclo[2.2.1]heptane-2-carboxamide] as the compound, how does the IC50 read?
Answer: 23 µM

Question: And the Emax?
Answer: 34%

Question: What does the source list for `COc1ccc(NC(=O)[C@@H]2[C@@H](c3cccc(C(F)(F)F)c3)[C@H]3O[C@@H]2C[C@@H]3O)cc1C(F)(F)F` (racemic) [Example 20, rac-(1R,2R,3S,4R,5S)-5-hydroxy-N-(4-methoxy-3-trifluoromethyl)phenyl)-3-(3-(trifluoromethyl)phenyl)-7-oxabicyclo[2.2.1]heptane-2-carboxamide]?
Answer: IC50: 14 µM; Emax: 102%

Question: How did the IC50 turn out when `Cn1cc([C@H]2[C@H]3O[C@H](C[C@@H]3O)[C@@H]2C(=O)Nc2cccc(C(F)(F)F)c2F)c(C(F)(F)F)n1` (racemic) [Example 57, rac-(1R,2R,3S,4R,5S)—N-(2-fluoro-3-(trifluoromethyl)phenyl)-5-hydroxy-3-(1-methyl-3-(trifluoromethyl-1H-pyrazol-4-yl)-7-oxabicyclo[2.2.1]heptane-2-carboxamide] was run?
Answer: > 30 µM

Question: What about the Emax of the same compound?
Answer: 50%

Question: Which IC50 does the source give for `Cc1cc(NC(=O)[C@@H]2[C@@H](c3cccc(C(F)(F)F)c3)[C@H]3O[C@@H]2C[C@@H]3O)cc(C(F)(F)F)c1` (racemic) [Example 13, rac-(1R,2R,3S,4R,5S)-5-hydroxy-N-(3-methyl-5-(trifluoromethyl)phenyl)-3-(3-(trifluoromethyl)phenyl)-7-oxabicyclo[2.2.1]heptane-2-carboxamide] here?
Answer: 11 µM

Question: And the Emax?
Answer: 105%

Question: `Cn1nc(C(F)(F)F)cc1[C@H]1[C@H]2O[C@H](C[C@@H]2O)[C@@H]1C(=O)Nc1cc(C(F)(F)F)ccc1C#N` (racemic) [Example 72, rac-(1R,2R,3S,4R,5S)—N-(2-cyano-5-(trifluoromethyl)phenyl)-5-hydroxy-3-(1-methyl-3-(trifluoromethyl)-1H-pyrazol-5-yl)-7-oxabicyclo[2.2.1]heptane-2-carboxamide] was tested. Which IC50 did it give?
Answer: 2.1 µM

Question: What about the Emax of the same compound?
Answer: 72%
